Several values for one entry are separate records, joined by “and”; a condition that tells them apart may be missing. Identical values can stand only once. Inconclusive results and toxic doses are left out. Rule as the data show it: active = T/C of 150% or more; inactive = T/C below 125%.
System: L1210 leukemia ip in BDF1 mice, survival T/C
Experiment: NCI In Vivo Anticancer Drug Screen. Data for tumor model L1210 Leukemia (intraperitoneal) in B6D2F1 (BDF1) mice
Conditions: endpoint: mean survival time, higher = longer survival
Summary of the method: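 Survival endpoint. Drug-treated group vs vehicle group, expressed as T divided by C. Tumor passaged by transplantation.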

[1] = dose: 100.0 mg/kg/injection, schedule: Q01DX001 (ip), vehicle: saline
[2] = dose: 200.0 mg/kg/injection, schedule: Q01DX001 (ip), vehicle: saline
[3] = dose: 400.0 mg/kg/injection, schedule: Q01DX001 (ip), vehicle: saline
[4] = dose: 100.0 mg/kg/injection, schedule: Q01DX009 (ip), vehicle: saline with Tween-80
[5] = dose: 200.0 mg/kg/injection, schedule: Q01DX009 (ip), vehicle: saline with Tween-80
[6] = dose: 400.0 mg/kg/injection, schedule: Q01DX009 (ip), vehicle: saline with Tween-80
[7] = dose: 100.0 mg/kg/injection, schedule: Q04DX003 (ip), vehicle: saline with Tween-80
[8] = dose: 200.0 mg/kg/injection, schedule: Q04DX003 (ip), vehicle: saline with Tween-80
[9] = dose: 100.0 mg/kg/injection, schedule: Q01DX001 (ip), vehicle: Klucel (hydroxypropylcellulose) (HPC)

Measured: T/C

NC(=O)CN(CC(N)=O)CC(N)=O
inactive: [1] 102 % of control | [2] 98 % of control | [3] 102 % of control

COc1ccc([N+](=O)[O-])cc1NC(=O)Nc1cccc(F)c1
inactive: dose: 100.0 mg/kg/injection, schedule: Q01DX009 (ip), vehicle: gum acacia 90 % of control | dose: 200.0 mg/kg/injection, schedule: Q01DX009 (ip), vehicle: gum acacia 95 % of control | dose: 400.0 mg/kg/injection, schedule: Q01DX009 (ip), vehicle: gum acacia 90 % of control

CC(=O)OC[C@]12CCC(C)=CC1O[C@@H]1C(OC(C)=O)[C@@H](O)[C@@]2(C)[C@]12CO2 (some centres undefined)
inactive: dose: 0.4 mg/kg/injection, schedule: Q01DX009 (ip), vehicle: other 97 % of control | dose: 0.8 mg/kg/injection, schedule: Q01DX009 (ip), vehicle: other 114 % of control | dose: 1.6 mg/kg/injection, schedule: Q01DX009 (ip), vehicle: other 114 % of control | dose: 3.2 mg/kg/injection, schedule: Q01DX009 (ip), vehicle: other 116 % of control

CC(=O)Oc1ccc(C2OC(=O)c3ccccc3N2C(C)=O)cc1 (centres undefined)
inactive: [4] 101 % of control | [5] 101 % of control | [6] 92 % of control

CC(=O)Nc1cccc(-c2nnc(C3CCCC(NC(C)=O)C3)nn2)c1 (centres undefined)
inactive: [1] 96 % of control | [2] 88 % of control | [3] 88 % of control

CCOC(=O)c1ccc(NC(=O)Nc2cccc(C(C)=O)c2)cc1
inactive: dose: 100.0 mg/kg/injection, schedule: Q01DX009 (ip), vehicle: Klucel (hydroxypropylcellulose) (HPC) 95 % of control | dose: 200.0 mg/kg/injection, schedule: Q01DX009 (ip), vehicle: Klucel (hydroxypropylcellulose) (HPC) 93 % of control | dose: 400.0 mg/kg/injection, schedule: Q01DX009 (ip), vehicle: Klucel (hydroxypropylcellulose) (HPC) 101 % of control

CC1CCC=C2C(=O)C3OC(C)(C)C(C3O)C21C (centres undefined)
inactive: [4] 96 % of control | [7] 97 % of control | [5] 91 % of control | [8] 103 % of control | [6] 93 % of control | dose: 400.0 mg/kg/injection, schedule: Q04DX003 (ip), vehicle: saline with Tween-80 90 % of control

O=C(c1ccccc1CO)N1CCCCC1
inactive: dose: 100.0 mg/kg/injection, schedule: Q04DX002 (ip), vehicle: Klucel (hydroxypropylcellulose) (HPC) 112 % of control | dose: 200.0 mg/kg/injection, schedule: Q04DX002 (ip), vehicle: Klucel (hydroxypropylcellulose) (HPC) 105 % of control

Nc1ncnc(N)c1NC(=O)c1ccc([N+](=O)[O-])cc1
inactive: dose: 25.0 mg/kg/injection, schedule: Q01DX001 (ip), vehicle: Klucel (hydroxypropylcellulose) (HPC) 93 % of control | dose: 50.0 mg/kg/injection, schedule: Q01DX001 (ip), vehicle: Klucel (hydroxypropylcellulose) (HPC) 89 % of control | [9] 102 % of control

CN=C(NC)c1ccc(NC(=O)c2cc(Cl)cc(C(=O)Nc3ccc(C(=NC)NC)cc3)c2)cc1
inactive: dose: 1.88 mg/kg/injection, schedule: Q01DX Z (ip), vehicle: saline 88 % of control | dose: 3.75 mg/kg/injection, schedule: Q01DX Z (ip), vehicle: saline 94 % of control | dose: 7.5 mg/kg/injection, schedule: Q01DX Z (ip), vehicle: saline 93 % of control | dose: 15.0 mg/kg/injection, schedule: Q01DX Z (ip), vehicle: saline 104 % of control and 115 % of control

c1cc[c]([GeH]([c]2ccccc2)[c]2ccccc2)cc1
inactive: dose: 64.0 mg/kg/injection, schedule: Q04DX002 (ip), vehicle: saline with Tween-80 91 % of control | dose: 160.0 mg/kg/injection, schedule: Q04DX002 (ip), vehicle: saline with Tween-80 94 % of control | dose: 400.0 mg/kg/injection, schedule: Q04DX002 (ip), vehicle: saline with Tween-80 97 % of control

O=C(O)CCC(=O)O
inactive: dose: 10.0 mg/kg/injection, schedule: Q01DX009 (ip), vehicle: saline 103 % of control and 101 % of control | dose: 20.0 mg/kg/injection, schedule: Q01DX009 (ip), vehicle: saline 100 % of control and 103 % of control | dose: 31.25 mg/kg/injection, schedule: Q01DX015 (ip), vehicle: water 96 % of control | dose: 40.0 mg/kg/injection, schedule: Q01DX009 (ip), vehicle: saline 97 % of control | dose: 62.5 mg/kg/injection, schedule: Q01DX015 (ip), vehicle: water 89 % of control | dose: 62.5 mg/kg/injection, schedule: Q01DX Z (ip), vehicle: water 95 % of control and 91 % of control | dose: 80.0 mg/kg/injection, schedule: Q01DX009 (ip), vehicle: saline 97 % of control and 99 % of control | [1] 96 % of control | dose: 100.0 mg/kg/injection, schedule: Q01DX009 (ip), vehicle: saline 97 % of control and 102 % of control and 92 % of control | dose: 125.0 mg/kg/injection, schedule: Q01DX015 (ip), vehicle: water 96 % of control and 87 % of control | dose: 125.0 mg/kg/injection, schedule: Q01DX Z (ip), vehicle: water 91 % of control and 88 % of control | dose: 160.0 mg/kg/injection, schedule: Q01DX009 (ip), vehicle: saline 93 % of control and 99 % of control | [2] 102 % of control | dose: 200.0 mg/kg/injection, schedule: Q01DX009 (ip), vehicle: saline 94 % of control and 97 % of control and 105 % of control | dose: 250.0 mg/kg/injection, schedule: Q01DX001 (ip), vehicle: water 100 % of control and 91 % of control | dose: 250.0 mg/kg/injection, schedule: Q01DX015 (ip), vehicle: water 93 % of control | dose: 250.0 mg/kg/injection, schedule: Q01DX Z (ip), vehicle: water 94 % of control and 100 % of control | [3] 107 % of control | dose: 400.0 mg/kg/injection, schedule: Q01DX009 (ip), vehicle: saline 105 % of control | dose: 500.0 mg/kg/injection, schedule: Q01DX001 (ip), vehicle: water 100 % of control | dose: 500.0 mg/kg/injection, schedule: Q01DX Z (ip), vehicle: water 94 % of control and 101 % of control

[Cl][Pt][Cl].[NH-]CCN1CC1
inactive: dose: 5.0 mg/kg/injection, schedule: Q01DX009 (ip), vehicle: Klucel (hydroxypropylcellulose) (HPC) 114 % of control | dose: 10.0 mg/kg/injection, schedule: Q01DX009 (ip), vehicle: Klucel (hydroxypropylcellulose) (HPC) 110 % of control | dose: 20.0 mg/kg/injection, schedule: Q01DX009 (ip), vehicle: Klucel (hydroxypropylcellulose) (HPC) 98 % of control

NCCCn1c2ccccc2c2cnccc21
inactive: dose: 12.5 mg/kg/injection, schedule: Q01DX009 (ip), vehicle: saline 101 % of control | dose: 25.0 mg/kg/injection, schedule: Q01DX009 (ip), vehicle: saline 101 % of control | dose: 25.0 mg/kg/injection, schedule: Q04DX003 (ip), vehicle: water 87 % of control | dose: 50.0 mg/kg/injection, schedule: Q01DX009 (ip), vehicle: saline 107 % of control | dose: 50.0 mg/kg/injection, schedule: Q01DX009 (ip), vehicle: water 104 % of control | dose: 50.0 mg/kg/injection, schedule: Q04DX003 (ip), vehicle: water 92 % of control | dose: 100.0 mg/kg/injection, schedule: Q01DX009 (ip), vehicle: water 103 % of control | dose: 100.0 mg/kg/injection, schedule: Q04DX003 (ip), vehicle: water 104 % of control and 87 % of control

CN(C)C=C1C(=O)c2ccccc2C1=O
inactive: [7] 105 % of control | [8] 107 % of control

COc1cc(C)c(C(=O)c2ccccc2N)cc1OC
inactive: dose: 100.0 mg/kg/injection, schedule: Q01DX001 (ip), vehicle: carboxymethylcellulose (CMC) 105 % of control | dose: 200.0 mg/kg/injection, schedule: Q01DX001 (ip), vehicle: carboxymethylcellulose (CMC) 118 % of control | dose: 400.0 mg/kg/injection, schedule: Q01DX001 (ip), vehicle: carboxymethylcellulose (CMC) 96 % of control

CC(=O)NC(c1ccccc1)C(NC(=O)c1ccccc1)c1ccccc1 (centres undefined)
inactive: dose: 100.0 mg/kg/injection, schedule: Q01DX001 (ip), vehicle: saline with Tween-80 92 % of control | dose: 200.0 mg/kg/injection, schedule: Q01DX001 (ip), vehicle: saline with Tween-80 94 % of control | dose: 400.0 mg/kg/injection, schedule: Q01DX001 (ip), vehicle: saline with Tween-80 89 % of control

O=C(NCCCl)Nc1ccccc1
inactive: [9] 93 % of control | dose: 100.0 mg/kg/injection, schedule: Q04DX003 (ip), vehicle: Klucel (hydroxypropylcellulose) (HPC) 122 % of control | dose: 200.0 mg/kg/injection, schedule: Q01DX001 (ip), vehicle: Klucel (hydroxypropylcellulose) (HPC) 101 % of control | dose: 200.0 mg/kg/injection, schedule: Q04DX003 (ip), vehicle: Klucel (hydroxypropylcellulose) (HPC) 104 % of control

Brc1ccc(-c2nc3ccccc3c(Br)c2Br)cc1
inactive: [1] 90 % of control | [2] 94 % of control | [3] 90 % of control

Source: PubChem BioAssay AID248 (DTP/NCI, 2004)
